Test results published in US20110281839A1, “COMBINATION THERAPY FOR THE TREATMENT OF BACTERIAL INFECTIONS” (priority 2010, published 2011).
Several values for one entry are separate records, joined by “and”; a condition that tells them apart may be missing. Equal values may be shown once. Entries after “also recorded” stand apart in the source; their conditions may differ. Where a name gives a salt, the structure may show the parent alone. Read-outs that look alike come from different tables or passages of the source. Values belong to the molecule of their own block, whether it stands above or below them.

Experiments:
A. baumannii isolates = test: Susceptibility of A. baumannii isolates by broth microdilution (CLSI methodology); type: cell-based; settings: for MIC: Acinetobacter baumannii
Procedure: Susceptibility of the A. baumannii isolates to each of the agents was determined by broth microdilution using Clinical and Laboratory Standards Institute (CLSI) methodology at a central laboratory. […] The susceptibility of A. baumannii to other drugs was interpreted according to the standard procedures as defiend by CLSI (Clinical and Laboratory Standards Institute Test Procedures MO2-A10, Vol. 29, No. 1; M07-A8, Vol. 29, No. 2 and/or M100-S19, Vol. 29, No. 3; Jan. 2009).

A. baumannii [1] = settings: MICs as high as 16 μg/mL; doripenem 1 gram over a 4 hour infusion; cited from earlier work
A. baumannii [2] = test: Clinical and microbiological outcome at test of cure visit in subjects with nosocomial pneumonia, 3 clinical studies of doripenem; type: in vivo, human
Procedure: Each group received treatment of either doripenem alone or doripenem with concomitant therapy, as noted.
True concomitant therapy was determined by applying the following algorithm: treatment with the second antimicrobial was initiated during Study Days 1-14 and administered on the same study days as doripenem. In addition, the second antimicrobial was given for >1 day of the overlapping period. Concomitant therapy was assessed for the following antimicrobial agents: the fluoroquinolones ciprofloxacin and levofloxacin, colistin and the aminoglycosides amakacin and tobramycin.
Doripenem was administered at either 500 mg Q8H as a 1 hour infusion, 500 mg Q8H as a 4 hour infusion or 1g Q8H as a 4 hour infusion, depending on the specific clinical study, as noted in the Tables below.

[3] = isolate of each patient, doripenem + amikacin group
[4] = per patient, test of cure visit, doripenem 1 gram or 500 mg every 8 hours, listed as Doripenem Monotherapy, monohydrate
[5] = whole treatment group, test of cure
[6] = A. baumannii isolate of each patient, doripenem monotherapy group, monohydrate
[7] = isolate of each patient, doripenem + amikacin group, monohydrate
[8] = isolate of each patient, doripenem + colistin group, monohydrate
[9] = isolate of each patient, doripenem + fluoroquinolone group
[10] = isolate of each patient, doripenem + tobramycin group, monohydrate
[11] = isolate of each patient, doripenem + tobramycin group
[12] = isolate of each patient, doripenem + colistin group

Molecule: NCC[C@H](O)C(=O)N[C@@H]1C[C@H](N)[C@@H](O[C@H]2O[C@H](CN)[C@@H](O)[C@H](O)[C@H]2O)[C@H](O)[C@H]1O[C@H]1O[C@H](CO)[C@@H](O)[C@H](N)[C@H]1O [Amikacin, amikacin]
- Amikacin MIC (A. baumannii isolates; [3]): >64 μg/mL (5×) and 4 μg/mL and 1 μg/mL (2×) and 2 μg/mL
- Amikacin susceptibility (A. baumannii isolates; [3]): (NS) (Non-susceptible (NS) ≧32 μg/mL); also recorded: (S) (Amikacin: Susceptible (S) ≦16 μg/mL)

- MIC (A. baumannii isolates; isolate of each patient, doripenem + fluoroquinolone group, read-out: Doripenem MIC): > 32 µg/mL
- Doripenem MIC (A. baumannii isolates; [8]): >32 µg/mL and 32 µg/mL and 1 µg/mL
- Doripenem MIC (A. baumannii isolates; isolate of each patient, doripenem + fluoroquinolone group, monohydrate): 32 µg/mL and 16 µg/mL and >32 µg/mL
Molecule: C[C@@H](O)[C@H]1C(=O)N2C(C(=O)O)=C(S[C@@H]3CN[C@H](CNS(N)(=O)=O)C3)[C@H](C)[C@H]12 [Doripenem, doripenem monohydrate]
- treatment of pneumonia due to A. baumannii (A. baumannii [1]): effectively treated
- treatment effect (A. baumannii [2]; nosocomial pneumonia due to doripenem-susceptible A. baumannii): effective
- Clinical Outcome (A. baumannii [2]; [4]): Cure (7×) and Failure (2×)
- Microbiological Outcome (A. baumannii [2]; [4]): Eradicated; also recorded: Persisted
- positive outcome (A. baumannii [2]; [5]): 77.8%
- positive outcome (patients with positive outcome / patients in group) (A. baumannii [2]; [5]): 7/9
- Doripenem MIC (A. baumannii isolates; [6]): 0.25 μg/mL (2×) and 0.12 μg/mL (2×) and 0.5 μg/mL (2×) and >128 μg/mL and 8 μg/mL and 1 μg/mL
- Doripenem susceptibility (A. baumannii isolates; [6]): (S) (Susceptible (S) ≦1 μg/mL); also recorded: (NS) (Non-susceptible (NS) >2 μg/mL)
- Doripenem MIC (A. baumannii isolates; [7]): 64 μg/mL (2×) and 1 μg/mL (2×) and 0.25 μg/mL and 0.12 μg/mL and >32 μg/mL and 16 μg/mL
- Doripenem susceptibility (A. baumannii isolates; [7]): (NS) (Non-susceptible (NS) >2 μg/mL); also recorded: (S) (Susceptible (S) ≦1 μg/mL)
- Doripenem susceptibility (A. baumannii isolates; [8]): (NS) (Non-susceptible (NS) >2 μg/mL); also recorded: (S) (Susceptible (S) ≦1 μg/mL)
- Doripenem susceptibility (A. baumannii isolates; [9]): (NS) (Non-susceptible (NS) >2 μg/mL)
- Doripenem MIC (A. baumannii isolates; [10]): 0.12 μg/mL (3×) and >32 μg/mL and 1 μg/mL and 0.25 μg/mL
- Doripenem susceptibility (A. baumannii isolates; [10]): (S) (Susceptible (S) ≦1 μg/mL); also recorded: (NS) (Non-susceptible (NS) >2 μg/mL)

- MIC (A. baumannii isolates; isolate of each patient, doripenem + fluoroquinolone group, read-out: Fluoroquinolone MIC): > 4 µg/mL
- Fluoroquinolone MIC (A. baumannii isolates; [9]): >4 µg/mL
Molecule: C[C@H]1COc2c(N3CCN(C)CC3)c(F)cc3c(=O)c(C(=O)O)cn1c23 [Levofloxacin, levofloxacin]
- Levofloxacin susceptibility (A. baumannii isolates; [9]): (NS) (Non-susceptible (NS) ≧4 μg/mL)

Molecule: NC[C@H]1O[C@H](O[C@H]2[C@H](O)[C@@H](O[C@H]3O[C@H](CO)[C@@H](O)[C@H](N)[C@H]3O)[C@H](N)C[C@@H]2N)[C@H](N)C[C@@H]1O [Tobramycin, tobranycin sulfate]
- Tobramycin MIC (A. baumannii isolates; [11]): 0.5 μg/mL (2×) and 4 μg/mL and 0.25 μg/mL
- Tobramycin susceptibility (A. baumannii isolates; [11]): (S) (Tobramycin: Susceptible (S) ≦4 μg/mL)

Molecule: colistin
- Colistin MIC (A. baumannii isolates; [12]): 1 µg/mL
- Colistin susceptibility (A. baumannii isolates; [12]): S (Colistin: Susceptible (S) ≦2 μg/mL)
